Converted amounts (≈) assume the structure as drawn.
Experiments:
[1] = system: Staphylococcus aureus S13E; assay type: cell-based
Procedure: (§1) The MIC's were determined using a standard broth micro-dilution assay.

[2] = system: Staphylococcus aureus SA1199B; assay type: cell-based
Procedure: as §1

[3] = system: Staphylococcus aureus 447; experiment: broth micro-dilution MIC; assay type: cell-based
Procedure: as §1

[4] = system: Staphylococcus aureus X778; experiment: broth micro-dilution MIC; assay type: cell-based
Procedure: as §1

[5] = system: Staphylococcus aureus 491; experiment: broth micro-dilution MIC; assay type: cell-based
Procedure: as §1

[6] = system: Staphylococcus aureus X400; experiment: broth micro-dilution MIC; assay type: cell-based
Procedure: as §1

[7] = system: Staphylococcus aureus SA1199; experiment: broth micro-dilution MIC; assay type: cell-based
Procedure: as §1

[8] = system: Entercoccus faecium 276; experiment: broth micro-dilution MIC; assay type: cell-based
Procedure: as §1

[9] = system: Staphylococcus aureus 489; experiment: broth micro-dilution MIC; assay type: cell-based
Procedure: as §1

[10] = system: Entercoccus faecium 180-1; experiment: broth micro-dilution MIC; assay type: cell-based
Procedure: as §1

[11] = system: Staphylococcus aureus 446; experiment: broth micro-dilution MIC; assay type: cell-based
Procedure: as §1

[12] = system: Staphylococcus aureus SA1199A; experiment: broth micro-dilution MIC; assay type: cell-based
Procedure: as §1

[13] = system: Streptococcus pyogenes C203; experiment: broth micro-dilution MIC; assay type: cell-based
Procedure: as §1

[14] = system: vancomycin-resistant enterococci; experiment: broth micro-dilution, mean geometric MIC; assay type: cell-based, Enterococcus faecium and Enterococcus faecalis; conditions: enterococci, 24-hour incubation
[15] = system: vancomycin-susceptible enterococci; experiment: broth micro-dilution, mean geometric MIC; assay type: cell-based, Enterococcus faecium and Enterococcus faecalis; conditions: enterococci, 24-hour incubation
[16] = system: Staphylococcus haemolyticus 105; experiment: broth micro-dilution MIC; assay type: cell-based
Procedure: (§2) The formula I compounds have in vitro and in vivo activity against Gram-positive pathogenic bacteria. The MIC's were determined using a standard broth micro-dilution assay.

[17] = system: Enterococcus gallinarum 245; experiment: broth micro-dilution MIC; assay type: cell-based; conditions: Enterococcus gallinarum 245
Procedure: as §2

[18] = system: Staphylococcus haemolyticus 415; experiment: broth micro-dilution MIC; assay type: cell-based
Procedure: as §2

[19] = system: Entercoccus faecium 180; experiment: broth micro-dilution MIC; assay type: cell-based; conditions: Entercoccus faecium 180
Procedure: as §2

[20] = system: Streptococcus pneumoniae P1; experiment: broth micro-dilution MIC; assay type: cell-based
Procedure: as §2

[21] = system: Staphylococcus epidermidis 270; experiment: broth micro-dilution MIC; assay type: cell-based
Procedure: as §2

[22] = system: Entercoccus faecium 2041; experiment: broth micro-dilution MIC; assay type: cell-based; conditions: Entercoccus faecium 2041
Procedure: as §2

[23] = system: Haemophilus influenzae RD; experiment: broth micro-dilution MIC; assay type: cell-based; conditions: Haemophilus influenzae RD
Procedure: as §2

[24] = system: Escherichia coli EC14; experiment: broth micro-dilution MIC; assay type: cell-based
Procedure: as §2

SMILES: CC(C)CC(C(=O)NC1C(=O)NC(CC(N)=O)C(=O)NC2C(=O)NC3C(=O)NC(C(=O)NC(C(=O)O)c4cc(O)cc(O)c4-c4cc3ccc4O)C(OC3CC(C)(N)C(O)C(C)O3)c3ccc(c(Cl)c3)Oc3cc2cc(c3OC2OC(CO)C(O)C(O)C2OC2CC(C)(NCc3ccc(Cc4ccccc4)cc3)C(O)C(C)O2)Oc2ccc(cc2Cl)C1O)N(C)Cc1ccc(Cc2ccccc2)cc1 (stereo not drawn) [Compound 270]
- MIC [1]: 2 µg/mL (≈ 1.02 µM)
- MIC [2]: 2 µg/mL (≈ 1.02 µM)
- MIC [3]: 0.5 µg/mL (≈ 0.256 µM)
- MIC [4]: 0.5 µg/mL (≈ 0.256 µM)
- MIC [5]: 0.25 µg/mL (≈ 0.128 µM)
- MIC [6]: 1 µg/mL (≈ 0.512 µM)
- MIC [7]: 1 µg/mL (≈ 0.512 µM)
- MIC [8]: 1 µg/mL (≈ 0.512 µM)
- MIC [9]: 0.25 µg/mL (≈ 0.128 µM)
- MIC [10]: ≤ 0.06 µg/mL
- MIC [11]: 1 µg/mL (≈ 0.512 µM)
- MIC [12]: ≤ 0.06 µg/mL
- MIC [13]: ≤ 0.06 µg/mL
- mean geometric MIC, Vancomycin Resistant Strains [14]: 2.8 µg/mL
- mean geometric MIC, Vancomycin Sensitive Strains [15]: 0.66 µg/mL
- MIC [16]: 4 µg/mL (≈ 2.05 µM)
- MIC [17]: 2 µg/mL (≈ 1.02 µM)
- MIC [18]: 2 µg/mL (≈ 1.02 µM)
- MIC [19]: 0.25 µg/mL (≈ 0.128 µM)
- MIC [20]: ≤ 0.06 µg/mL
- MIC [21]: 1 µg/mL (≈ 0.512 µM)
- MIC [22]: 0.5 µg/mL (≈ 0.256 µM)
- MIC [23]: > 64 µg/mL
- MIC [24]: > 64 µg/mL

SMILES: CC(C)CC(C(=O)NC1C(=O)NC(CC(N)=O)C(=O)NC2C(=O)NC3C(=O)NC(C(=O)NC(C(=O)O)c4cc(O)cc(O)c4-c4cc3ccc4O)C(OC3CC(C)(N)C(O)C(C)O3)c3ccc(c(Cl)c3)Oc3cc2cc(c3OC2OC(CO)C(O)C(O)C2OC2CC(C)(NCc3cccc(Oc4ccccc4)c3)C(O)C(C)O2)Oc2ccc(cc2Cl)C1O)N(C)Cc1cccc(Oc2ccccc2)c1 (stereo not drawn) [Compound 271]
- MIC [1]: 1 µg/mL (≈ 0.511 µM)
- MIC [2]: 1 µg/mL (≈ 0.511 µM)
- MIC [3]: 2 µg/mL (≈ 1.02 µM)
- MIC [4]: 0.5 µg/mL (≈ 0.256 µM)
- MIC [5]: 0.5 µg/mL (≈ 0.256 µM)
- MIC [6]: 2 µg/mL (≈ 1.02 µM)
- MIC [7]: 2 µg/mL (≈ 1.02 µM)
- MIC [8]: 1 µg/mL (≈ 0.511 µM)
- MIC [9]: 1 µg/mL (≈ 0.511 µM)
- MIC [10]: 0.125 µg/mL (≈ 0.0639 µM)
- MIC [11]: 1 µg/mL (≈ 0.511 µM)
- MIC [12]: 0.5 µg/mL (≈ 0.256 µM)
- MIC [13]: ≤ 0.06 µg/mL
- mean geometric MIC, Vancomycin Resistant Strains [14]: 5.7 µg/mL
- mean geometric MIC, Vancomycin Sensitive Strains [15]: 0.33 µg/mL
- MIC [16]: 2 µg/mL (≈ 1.02 µM)
- MIC [17]: 2 µg/mL (≈ 1.02 µM)
- MIC [18]: 2 µg/mL (≈ 1.02 µM)
- MIC [19]: 2 µg/mL (≈ 1.02 µM)
- MIC [20]: ≤ 0.06 µg/mL
- MIC [21]: 1 µg/mL (≈ 0.511 µM)
- MIC [22]: 2 µg/mL (≈ 1.02 µM)
- MIC [23]: > 64 µg/mL
- MIC [24]: > 64 µg/mL

SMILES: CNC(CC(C)C)C(=O)NC1C(=O)NC(CC(N)=O)C(=O)NC2C(=O)NC3C(=O)NC(C(=O)NC(C(=O)O)c4cc(O)cc(O)c4-c4cc3ccc4O)C(OC3CC(C)(NCc4ccc(C(F)(F)F)cc4)C(O)C(C)O3)c3ccc(c(Cl)c3)Oc3cc2cc(c3OC2OC(CO)C(O)C(O)C2OC2CC(C)(NCc3ccc(C(F)(F)F)cc3)C(O)C(C)O2)Oc2ccc(cc2Cl)C1O (stereo not drawn) [Compound 272]
- MIC [1]: 0.125 µg/mL (≈ 0.0655 µM)
- MIC [2]: ≤ 0.06 µg/mL
- MIC [3]: 0.25 µg/mL (≈ 0.131 µM)
- MIC [4]: 0.125 µg/mL (≈ 0.0655 µM)
- MIC [5]: 0.25 µg/mL (≈ 0.131 µM)
- MIC [6]: 0.125 µg/mL (≈ 0.0655 µM)
- MIC [7]: 0.25 µg/mL (≈ 0.131 µM)
- MIC [8]: 0.125 µg/mL (≈ 0.0655 µM)
- MIC [9]: 0.125 µg/mL (≈ 0.0655 µM)
- MIC [10]: ≤ 0.06 µg/mL
- MIC [11]: 0.25 µg/mL (≈ 0.131 µM)
- MIC [12]: ≤ 0.06 µg/mL
- MIC [13]: ≤ 0.06 µg/mL
- mean geometric MIC, Vancomycin Resistant Strains [14]: 4.75 µg/mL
- mean geometric MIC, Vancomycin Sensitive Strains [15]: 0.072 µg/mL
- MIC [16]: 0.125 µg/mL (≈ 0.0655 µM)
- MIC [17]: 0.5 µg/mL (≈ 0.262 µM)
- MIC [18]: 0.5 µg/mL (≈ 0.262 µM)
- MIC [19]: 0.5 µg/mL (≈ 0.262 µM)
- MIC [20]: ≤ 0.06 µg/mL
- MIC [21]: ≤ 0.06 µg/mL
- MIC [22]: 0.125 µg/mL (≈ 0.0655 µM)
- MIC [23]: > 64 µg/mL
- MIC [24]: > 64 µg/mL

SMILES: CC(C)CC(C(=O)NC1C(=O)NC(CC(N)=O)C(=O)NC2C(=O)NC3C(=O)NC(C(=O)NC(C(=O)O)c4cc(O)cc(O)c4-c4cc3ccc4O)C(OC3CC(C)(N)C(O)C(C)O3)c3ccc(c(Cl)c3)Oc3cc2cc(c3OC2OC(CO)C(O)C(O)C2OC2CC(C)(NCc3ccncc3)C(O)C(C)O2)Oc2ccc(cc2Cl)C1O)N(C)Cc1ccncc1 (stereo not drawn) [Compound 274]
- MIC [1]: 4 µg/mL (≈ 2.25 µM)
- MIC [2]: 2 µg/mL (≈ 1.13 µM)
- MIC [3]: 16 µg/mL (≈ 9.02 µM)
- MIC [4]: 4 µg/mL (≈ 2.25 µM)
- MIC [5]: 4 µg/mL (≈ 2.25 µM)
- MIC [6]: 8 µg/mL (≈ 4.51 µM)
- MIC [7]: 2 µg/mL (≈ 1.13 µM)
- MIC [8]: 1 µg/mL (≈ 0.563 µM)
- MIC [9]: 2 µg/mL (≈ 1.13 µM)
- MIC [10]: 0.5 µg/mL (≈ 0.282 µM)
- MIC [11]: 8 µg/mL (≈ 4.51 µM)
- MIC [12]: 1 µg/mL (≈ 0.563 µM)
- MIC [13]: 0.125 µg/mL (≈ 0.0704 µM)
- mean geometric MIC, Vancomycin Resistant Strains [14]: > 128 µg/mL
- mean geometric MIC, Vancomycin Sensitive Strains [15]: 9.2 µg/mL
- MIC [16]: > 64 µg/mL
- MIC [17]: > 64 µg/mL
- MIC [18]: > 64 µg/mL
- MIC [19]: > 64 µg/mL
- MIC [20]: ≤ 0.06 µg/mL
- MIC [21]: 16 µg/mL (≈ 9.02 µM)
- MIC [22]: 1 µg/mL (≈ 0.563 µM)
- MIC [23]: > 64 µg/mL
- MIC [24]: > 64 µg/mL

SMILES: CNC(CC(C)C)C(=O)NC1C(=O)NC(CC(N)=O)C(=O)NC2C(=O)NC3C(=O)NC(C(=O)NC(C(=O)O)c4cc(O)cc(O)c4-c4cc3ccc4O)C(OC3CC(C)(NCc4cnc5ccccc5c4)C(O)C(C)O3)c3ccc(c(Cl)c3)Oc3cc2cc(c3OC2OC(CO)C(O)C(O)C2OC2CC(C)(NCc3cnc4ccccc4c3)C(O)C(C)O2)Oc2ccc(cc2Cl)C1O (stereo not drawn) [Compound 275]
- MIC [1]: 0.125 µg/mL (≈ 0.0667 µM)
- MIC [2]: 0.125 µg/mL (≈ 0.0667 µM)
- MIC [3]: 1 µg/mL (≈ 0.533 µM)
- MIC [4]: ≤ 0.06 µg/mL
- MIC [5]: 1 µg/mL (≈ 0.533 µM)
- MIC [6]: 0.25 µg/mL (≈ 0.133 µM)
- MIC [7]: ≤ 0.06 µg/mL
- MIC [8]: ≤ 0.06 µg/mL
- MIC [9]: ≤ 0.06 µg/mL
- MIC [10]: ≤ 0.06 µg/mL
- MIC [11]: 0.25 µg/mL (≈ 0.133 µM)
- MIC [12]: ≤ 0.06 µg/mL
- MIC [13]: ≤ 0.06 µg/mL
- mean geometric MIC, Vancomycin Resistant Strains [14]: 16 µg/mL
- mean geometric MIC, Vancomycin Sensitive Strains [15]: 0.33 µg/mL
- MIC [16]: 1 µg/mL (≈ 0.533 µM)
- MIC [17]: 4 µg/mL (≈ 2.13 µM)
- MIC [18]: 4 µg/mL (≈ 2.13 µM)
- MIC [19]: 1 µg/mL (≈ 0.533 µM)
- MIC [20]: ≤ 0.06 µg/mL
- MIC [21]: 1 µg/mL (≈ 0.533 µM)
- MIC [22]: ≤ 0.06 µg/mL
- MIC [23]: > 64 µg/mL
- MIC [24]: > 64 µg/mL

Source: patent US5840684A, “Glycopeptide antibiotic derivatives” (Eli Lilly and Company, priority 1995, dated 1998)
